Experimental findings from ChEMBL document CHEMBL4393660, “New pyrazole derivatives: Synthesis, anti-inflammatory activity, cycloxygenase inhibition assay and evaluation of mPGES” (Eur J Med Chem, 2019) are described below.

The source made the active and inactive calls. The rule behind the calls is not given here.

Data set [1] addresses T1, Prostaglandin G/H synthase 2 (Homo sapiens, UniProt P35354).
T1 sequence (P35354 whole entry): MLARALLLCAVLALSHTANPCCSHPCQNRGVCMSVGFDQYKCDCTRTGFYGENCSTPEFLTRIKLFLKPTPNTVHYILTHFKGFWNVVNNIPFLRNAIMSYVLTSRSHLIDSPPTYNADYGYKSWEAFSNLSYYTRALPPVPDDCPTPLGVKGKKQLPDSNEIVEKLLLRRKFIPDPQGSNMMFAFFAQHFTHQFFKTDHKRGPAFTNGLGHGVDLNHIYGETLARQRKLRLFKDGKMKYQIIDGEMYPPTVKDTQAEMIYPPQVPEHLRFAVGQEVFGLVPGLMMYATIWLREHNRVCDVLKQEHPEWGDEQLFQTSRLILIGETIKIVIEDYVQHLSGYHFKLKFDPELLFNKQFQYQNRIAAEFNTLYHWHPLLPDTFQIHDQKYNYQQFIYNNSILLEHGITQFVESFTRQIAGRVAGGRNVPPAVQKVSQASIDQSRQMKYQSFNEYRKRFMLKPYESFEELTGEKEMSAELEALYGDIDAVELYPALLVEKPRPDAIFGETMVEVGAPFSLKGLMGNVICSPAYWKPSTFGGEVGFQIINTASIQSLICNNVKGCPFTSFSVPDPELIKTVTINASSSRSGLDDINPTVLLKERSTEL
Description: Inhibition of human recombinant COX-2 assessed as reduction in PGF2alpha formation using arachidonic acid as substrate preincubated with enzyme for 10 mins followed by substrate addition for 30 secs and measured after 1 hr by microplate reader based enzyme immunoassay.

Data set [2] addresses Prostaglandin G/H synthase 1 (Homo sapiens, UniProt P23219). Description: Inhibition of human recombinant COX1 assessed as reduction in PGF2alpha formation using arachidonic acid as substrate preincubated with enzyme for 10 mins followed by substrate addition for 30 secs and measured after 1 hr by microplate reader based enzyme immunoassay.
For the next data set, the species on record is Homo sapiens. Description: Selectivity index, ratio of IC50 for human recombinant COX1 to IC50 for human recombinant COX-2 assessed as reduction in PGF2alpha formation using arachidonic acid as substrate preincubated with enzyme for 10 mins followed by substrate addition for 30 secs and measured after 1 hr by microplate reader based enzyme immunoassay.

The subject of data set [3] is Rattus norvegicus. Put plainly: Anti-inflammatory activity against carrageenan-induced albino rat paw edema model assessed as inhibition of microsomal PGE2 synthase expression in plasma at 10 umol/kg, sc treated 1 hr prior to carrageenan challenge measured after 2 hrs by microplate reader based monoclonal sandwich ELISA assay. The class given is functional.
Data set [4] relates to Rattus norvegicus. Description: Anti-inflammatory activity against carrageenan-induced albino rat paw edema model assessed as inhibition of carrageenan-induced right hind paw edema at 10 umol/kg, sc treated 1 hr prior to carrageenan challenge and measured at 3 hrs after carrageenan treatment by plethysmometer relative to control. It counts as functional. On the technique in general: In the carrageenan paw model, swelling and tenderness develop within hours.

In data set [5] the test system is Rattus norvegicus. Put plainly: Anti-inflammatory activity against carrageenan-induced albino rat paw edema model assessed as inhibition of PGE2 production in plasma at 10 umol/kg, sc treated 1 hr prior to carrageenan challenge measured after 2 hrs by microplate reader based enzyme immunoassay relative to control. It counts as functional.
Data set [6] deals with Rattus norvegicus. Put plainly: Anti-inflammatory activity against carrageenan-induced albino rat paw edema model assessed as inhibition of carrageenan-induced right hind paw edema at 10 umol/kg, sc treated 1 hr prior to carrageenan challenge and measured at 6 hrs after carrageenan treatment by plethysmometer relative to control. The class given is functional.
In data set [7] the test system is Rattus norvegicus. Put plainly: Anti-inflammatory activity against carrageenan-induced albino rat paw edema model assessed as inhibition of carrageenan-induced right hind paw edema at 10 umol/kg, sc treated 1 hr prior to carrageenan challenge and measured at 2 hrs after carrageenan treatment by plethysmometer relative to control. It counts as functional.
For data set [8], the system named is Rattus norvegicus. Description: Anti-inflammatory activity against carrageenan-induced albino rat paw edema model assessed as inhibition of carrageenan-induced right hind paw edema at 10 umol/kg, sc treated 1 hr prior to carrageenan challenge and measured at 1 hr after carrageenan treatment by plethysmometer relative to control. The class given is functional.

Data set [9] in a line: Toxicity in carrageenan-induced albino rat paw edema model assessed as Inhibition of cytosolic PGE2 synthase expression in plasma at 10 umol/kg, sc treated 1 hr prior to carrageenan challenge measured after 2 hrs by microplate reader based monoclonal sandwich ELISA assay. The class given is organism-based. Particulars: in vivo.
For data set [10], the system named is Rattus norvegicus. Put plainly: Anti-inflammatory activity against carrageenan-induced albino rat paw edema model assessed as inhibition of carrageenan-induced right hind paw edema at 10 umol/kg, sc treated 1 hr prior to carrageenan challenge and measured immediately after carrageenan treatment by plethysmometer relative to control. The class given is functional.

In data set [11] the test system is Rattus norvegicus. Put plainly: Ratio of inhibition of microsomal PGE2 synthase expression to inhibition of cytosolic PGE2 synthase expression in plasma of carrageenan-induced albino rat paw edema model at 10 umol/kg, sc treated 1 hr prior to carrageenan challenge measured after 2 hrs by microplate reader based monoclonal sandwich ELISA assay.

Prostaglandin G/H synthase 1, sequence (P23219 whole entry): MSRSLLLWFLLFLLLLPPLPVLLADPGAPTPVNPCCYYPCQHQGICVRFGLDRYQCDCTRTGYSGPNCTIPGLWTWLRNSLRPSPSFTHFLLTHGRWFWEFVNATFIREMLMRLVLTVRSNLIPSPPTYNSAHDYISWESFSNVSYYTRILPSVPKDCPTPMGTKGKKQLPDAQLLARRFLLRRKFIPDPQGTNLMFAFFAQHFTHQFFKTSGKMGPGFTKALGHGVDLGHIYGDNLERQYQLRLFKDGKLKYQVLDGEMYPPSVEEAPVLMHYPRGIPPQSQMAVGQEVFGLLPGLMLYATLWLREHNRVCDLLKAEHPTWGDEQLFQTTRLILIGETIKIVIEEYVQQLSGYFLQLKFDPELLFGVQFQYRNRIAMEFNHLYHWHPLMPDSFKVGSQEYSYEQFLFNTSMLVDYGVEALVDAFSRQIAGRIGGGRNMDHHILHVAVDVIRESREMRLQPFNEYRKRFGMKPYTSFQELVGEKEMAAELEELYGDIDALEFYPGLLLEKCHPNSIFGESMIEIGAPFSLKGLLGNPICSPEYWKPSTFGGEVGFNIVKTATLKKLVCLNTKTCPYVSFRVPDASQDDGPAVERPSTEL

For the compound `N#Cc1cnn(-c2ccc(S(N)(=O)=O)cc2)c1NC(=O)c1ccccc1`, the results for the IC50 in data set [1] and in data set [2] were 56.2 nM and 73.3 nM, respectively. Further, in the data set filed under Homo sapiens, the Ratio IC50 is 1.3.
Take `CC(=O)Nc1c(C#N)cnn1-c1ccc(S(=O)(=O)NC(C)=O)cc1`: the figures for the 50% inhibitory concentration (IC50) in data set [1] and in data set [2] were 61.2 nM and 879 nM, respectively. Further, the inhibition in vivo (usually the drop in the measured response relative to a control, in per cent) at 10 µmol/kg in the data set with Rattus norvegicus [3] came out at 80%; in the data set on Rattus norvegicus [4], 35%; in the data set on Rattus norvegicus [5] it was 65.3%; with Rattus norvegicus [6] it was 44.3%; with Rattus norvegicus [7], 17.5%; in the data set on Rattus norvegicus [8] it was 9.26%. In the data set with Rattus norvegicus [10], the inhibition in vivo at 10 µmol/kg worked out at 0%. For the same compound, the Ratio IC50 in the data set listed under Homo sapiens worked out at 14.3. Besides, the “inhibition (INH)” value in [9] was found to be 31.08%.
With `COc1ccc(/C=N/c2c(C#N)cnn2-c2ccc(S(N)(=O)=O)cc2)cc1`, the IC50 (as a rule, the point on the concentration scale where inhibition reaches its midpoint) in [1] stood at 39.1 nM; in data set [2], 513 nM. The inhibition in vivo at 10 µmol/kg was 80.3% in the data set with Rattus norvegicus [3]; 33.6% in the data set with Rattus norvegicus [4]; 64.4% in the data set with Rattus norvegicus [5]; 42.3% in the data set with Rattus norvegicus [6]; 5.29% with Rattus norvegicus [7]. The inhibition result in the data set on Rattus norvegicus [8] and in the data set with Rattus norvegicus [10] was “inactive” throughout. Further, the Ratio IC50 in the data set filed under Homo sapiens was determined as 13.1. Further, the “inhibition (INH)” value in data set [9] was found to be 52.43%.
With `N#Cc1cnn(-c2ccc(S(N)(=O)=O)cc2)c1/N=C/c1ccc(F)cc1`, the results for the IC50 in [1] and in [2] were 38.7 nM and 677 nM, respectively. Also, the inhibition in vivo at 10 µmol/kg was determined as 74.7% in the data set with Rattus norvegicus [3]; 36.7% with Rattus norvegicus [4]; 73.9% in the data set with Rattus norvegicus [5]; 43% with Rattus norvegicus [6]; 7.94% with Rattus norvegicus [7]; 1.85% in the data set with Rattus norvegicus [8]. Also, in the data set listed under Homo sapiens, the Ratio IC50 came out at 17.5. For the same compound, the “inhibition (INH)” value in data set [9] turned out to be 48.52%. For the same compound, the inhibition entry with Rattus norvegicus [10] was “inactive”.
As for `N#Cc1cnn(-c2ccc(S(N)(=O)=O)cc2)c1NC(=O)CCN1CCOCC1`, the figures for the IC50 in [1] and in [2] were 39.4 nM and 876 nM, respectively. In addition, the inhibition in vivo at 10 µmol/kg in the data set with Rattus norvegicus [3] was 74.1%; in the data set with Rattus norvegicus [4], 39.5%; with Rattus norvegicus [5] it was 76.2%; with Rattus norvegicus [6], 44%; in the data set with Rattus norvegicus [7], 27.5%; in the data set with Rattus norvegicus [8] it was 2.04%. For the same compound, the “fold change (FC)” value in the data set with Rattus norvegicus [11] is given as 1.5. In the data set listed under Homo sapiens, the Ratio IC50 amounted to 22.2. Also, in [9], the “inhibition (INH)” value is 44.43%. Besides, the inhibition entry in the data set with Rattus norvegicus [10] was “inactive”.
Take `COc1ccc(/C=N/c2c(C#N)cnn2-c2ccc(S(N)(=O)=O)cc2)cc1OC`: the results for the IC50 in data set [1] and in data set [2] were 43.7 nM and 163 nM, respectively. Further, the Ratio IC50 in the data set filed under Homo sapiens amounted to 3.72.
On to `Cc1ccc(-c2cc(C(F)(F)F)nn2-c2ccc(S(N)(=O)=O)cc2)cc1` [CELECOXIB], for which the inhibition in vivo at 10 µmol/kg in the data set on Rattus norvegicus [3] is 80%; with Rattus norvegicus [4], 35%; in the data set with Rattus norvegicus [5], 69.6%; with Rattus norvegicus [6], 42.6%; with Rattus norvegicus [7], 8.99%; in the data set with Rattus norvegicus [8] it was 11.1%. Moreover, the inhibition in vivo at 10 µmol/kg with Rattus norvegicus [10] came out at 6.06%. Moreover, in [9], the “inhibition (INH)” value is 51.11%.
As for `N#Cc1cnn(-c2ccc(S(N)(=O)=O)cc2)c1/N=C/c1ccc(Br)cc1`, the figures for the IC50 in data set [1] and in data set [2] were 64.9 nM and 116 nM, respectively. Also, the Ratio IC50 in the data set filed under Homo sapiens was determined as 1.78.
In the same order, the values of `CC(Cl)C(=O)Nc1c(C#N)cnn1-c1ccc(S(N)(=O)=O)cc1` (configuration not stated) are 108 nM, 507 nM and 4.67.
Regarding `N#Cc1cnn(-c2ccc(S(N)(=O)=O)cc2)c1NC(=O)CN1CCOCC1`, the IC50 came to 34.2 nM in [1] and 64.7 nM in data set [2]. The Ratio IC50 in the data set filed under Homo sapiens stood at 1.89.
In the same order, the values of `CC(C(=O)Nc1c(C#N)cnn1-c1ccc(S(N)(=O)=O)cc1)N1CCOCC1` (configuration not stated) are 123 nM, 161 nM and 1.31.
Regarding `N#Cc1cnn(-c2ccc(S(N)(=O)=O)cc2)c1/N=C/c1ccccc1`, the IC50 in data set [1] amounted to 83 nM; in data set [2], 205 nM. In the data set listed under Homo sapiens, the Ratio IC50 came out at 2.46.
On to `N#Cc1cnn(-c2ccc(S(N)(=O)=O)cc2)c1/N=C/c1ccc(Cl)cc1`, for which the concentration for half-maximal inhibition (IC50) worked out at 190 nM in [1] and 169 nM in [2]. The Ratio IC50 in the data set listed under Homo sapiens worked out at 0.89.
As for `N#Cc1cnn(-c2ccc(S(N)(=O)=O)cc2)c1NC(=O)CCl`, the values for the 50% inhibitory concentration (IC50) in [1] and in data set [2] were 19.9 nM and 104 nM, respectively. Moreover, the inhibition in vivo at 10 µmol/kg in the data set on Rattus norvegicus [3] turned out to be 80.7%; with Rattus norvegicus [4], 40.1%; in the data set on Rattus norvegicus [5], 67.5%; in the data set with Rattus norvegicus [6] it was 46%; with Rattus norvegicus [7] it was 26.5%; in the data set with Rattus norvegicus [8], 16.7%. Moreover, the inhibition in vivo at 10 µmol/kg in the data set on Rattus norvegicus [10] is 13.6%. Besides, in the data set with Rattus norvegicus [11], the “fold change (FC)” value was 2.5. Besides, in the data set filed under Homo sapiens, the Ratio IC50 stood at 5.24. Also, the “inhibition (INH)” value in [9] is recorded as 31.55%.
On to `N#Cc1cnn(-c2ccc(S(N)(=O)=O)cc2)c1NC(=O)CCCl`, for which the results for the IC50 in data set [1] and in data set [2] were 58 nM and 123 nM, respectively. In the data set filed under Homo sapiens, the Ratio IC50 was found to be 2.12.
